Source: PMC8847695 (Frontiers in Chemistry, 2022)

Legend:
Assay type in all cases: binding
Conditions in all cases: 1 = hit, 0 = no hit
IDO1 (1-435) = biological target: T1, IDO1 (1-435) (Homo sapiens, UniProt P14902); experiment: STD-NMR fragment screening, IDO1
T1 construct: His-tag of pET15b with TEV site (thrombin site replaced) (cleaved yes); made in house; host or cells: E. coli Rosetta 2 (DE3) pLysS
Procedure: (§1) All fragments were stored at −20°C as solids in argon flushed glass bottles. For NMR screening, fragments were weighed and dissolved in DMSO-d6 to a stock concentration of 300 mM. Mother plates were prepared with a 100 mM concentration. From these plates, daughter plates were prepared with the fragments mixed in the plates to a concentration of 50 mM for each fragment. Daughter plates were opened a maximum of eight times. The plates were argon flushed and sealed with a HT121TS (HTA) and Foil Heat Seal (Biozym).
(§2) For long time measurements, like the protein ^1H NMR spectrum, the buffer exchange was performed twice to reduce residual buffer peaks. All experiments were performed on a Bruker Avance III HDX 700 instrument, equipped with a 5 mm Prodigy TCI cryo-probehead. For every protein, a standard ^1H NMR experiment with 1 k scans and water suppression through presaturation was performed. […] The on-resonance frequency, which was determined from the ^1H NMR spectra of the protein, was between 0.5 and 0.6 ppm; 40 ppm was used as the off-resonance frequency. For an interleaved acquisition of the on- and off-resonance, a pseudo-2D scheme was applied. The saturation was done by Gaussian pulses with a length of 50 ms and 60 dB of attenuation, with an interpulse delay of 1 ms leading to an excitation bandwidth of about 42 Hz. The screening was done with 16 scans of on- and off-resonance scans each, with a 3 s saturation time. The samples contained final concentrations of 20 µM protein, 10% (^V/V) DMSO-d6, and 1 mM of each of the two fragments. A ^1H-NMR experiment was performed for each compound to act as a reference spectrum in the STD experiments. All NMR experiments were carried out at 25°C.
(§3) Fifteen of these compounds contain the same halogen twice. No compound bears mixtures of different halogen atoms. Four proteins (AAK1, CAMK1G, IDO1, and DOT1L) were screened against this HEFLib using STD-NMR. A fragment was considered a hit if the peak intensity in the difference spectrum was three times higher than the local background noise. […] Chemical compatibility and peak complementarity were assured for these mixtures. Samples containing more than two fragments were avoided to minimize the possible target competition and to decrease the risk of fragment interactions. […] The ^1H reference NMR spectrum of the mixture is shown in red for comparison. […] As fragment mixtures can lead to competitive effects between their fragments, it is not advised to use the quantification of peak mixtures for hit ranking.

DOT1L (1-416) = biological target: T2, DOT1L (1-416) (Homo sapiens, UniProt Q8TEK3); experiment: STD-NMR fragment screening, DOT1L
T2 construct: made in house; host or cells: E. coli BL21 (DE3) pLysS
Procedure: as §1, §2, §3

CAMK1G (1-320) = biological target: T3, CAMK1G (1-320) (Homo sapiens, UniProt Q96NX5); experiment: STD-NMR fragment screening, CAMK1G
T3 construct: made in house; host or cells: E. coli BL21 (DE3) pLysS
Procedure: as §1, §2, §3

AAK1 (121-471) = AAK1 (121-471) (Homo sapiens, UniProt Q2M2I8); experiment: STD-NMR fragment screening, AAK1
Procedure: as §1, §2, §3

Chain of AAK1 (121-471) (Q2M2I8 46-315 limits assumed): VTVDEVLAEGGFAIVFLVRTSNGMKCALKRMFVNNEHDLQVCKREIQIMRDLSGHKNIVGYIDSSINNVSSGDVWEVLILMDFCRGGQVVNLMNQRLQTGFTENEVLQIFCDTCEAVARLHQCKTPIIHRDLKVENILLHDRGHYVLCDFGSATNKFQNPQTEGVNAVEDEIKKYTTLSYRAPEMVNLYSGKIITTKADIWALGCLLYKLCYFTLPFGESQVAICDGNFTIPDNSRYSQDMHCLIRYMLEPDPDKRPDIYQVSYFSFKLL
T1 sequence (P14902 whole entry, the tested form may be a part): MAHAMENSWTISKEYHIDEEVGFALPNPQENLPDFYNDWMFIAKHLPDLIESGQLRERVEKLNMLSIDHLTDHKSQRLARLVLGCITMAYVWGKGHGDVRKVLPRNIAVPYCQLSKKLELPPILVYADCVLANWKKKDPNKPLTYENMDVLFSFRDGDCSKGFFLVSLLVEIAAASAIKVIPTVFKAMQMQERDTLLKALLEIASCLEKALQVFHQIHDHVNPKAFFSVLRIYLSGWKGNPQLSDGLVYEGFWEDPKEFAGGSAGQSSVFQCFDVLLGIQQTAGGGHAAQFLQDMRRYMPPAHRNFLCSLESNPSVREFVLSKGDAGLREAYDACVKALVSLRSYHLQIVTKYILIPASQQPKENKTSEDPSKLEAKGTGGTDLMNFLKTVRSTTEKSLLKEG
T3 sequence (Q96NX5 1-320): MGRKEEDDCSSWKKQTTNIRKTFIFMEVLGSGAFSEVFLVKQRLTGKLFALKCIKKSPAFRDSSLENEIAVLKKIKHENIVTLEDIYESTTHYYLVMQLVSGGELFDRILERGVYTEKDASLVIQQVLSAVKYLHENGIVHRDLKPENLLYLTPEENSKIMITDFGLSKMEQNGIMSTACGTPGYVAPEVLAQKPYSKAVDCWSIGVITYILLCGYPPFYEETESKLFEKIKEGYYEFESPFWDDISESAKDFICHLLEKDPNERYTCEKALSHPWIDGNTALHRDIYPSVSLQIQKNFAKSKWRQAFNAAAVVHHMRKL
T2 sequence (Q8TEK3 1-416): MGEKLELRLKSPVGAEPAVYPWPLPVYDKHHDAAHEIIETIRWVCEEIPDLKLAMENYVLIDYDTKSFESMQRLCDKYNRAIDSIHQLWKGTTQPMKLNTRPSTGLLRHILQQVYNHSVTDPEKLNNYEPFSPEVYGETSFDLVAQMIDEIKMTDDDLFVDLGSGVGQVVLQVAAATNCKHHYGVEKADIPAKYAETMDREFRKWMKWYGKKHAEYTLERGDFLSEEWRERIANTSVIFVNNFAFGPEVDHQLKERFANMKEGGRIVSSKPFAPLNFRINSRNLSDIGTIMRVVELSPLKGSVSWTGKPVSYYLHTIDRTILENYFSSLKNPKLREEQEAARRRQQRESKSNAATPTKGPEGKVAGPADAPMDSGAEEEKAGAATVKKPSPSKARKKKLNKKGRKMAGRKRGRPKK

Row | SMILES | IDO1 (STD-NMR hit flag) (IDO1 (1-435)) | DOT1L (STD-NMR hit flag) (DOT1L (1-416)) | CAMK1G (STD-NMR hit flag) (CAMK1G (1-320)) | AAK1 (STD-NMR hit flag) (AAK1 (121-471))
1 | O=C1Nc2cccc(Cl)c2C1=O [Fragment B02291255] | 0 | 0 | 0 | 0
2 | N#Cc1ccnc(Cl)c1 [Fragment B02291271] | 0 | 0 | 0 | 0
3 | O=c1[nH]cc(Br)c(=O)[nH]1 [Fragment B02291248] | 0 | 0 | 1 | 1
4 | O=C(O)c1ccc(Cl)cn1 [Fragment B02289602] | 0 | 0 | 0 | 0
5 | Clc1cnccn1 [Fragment B02291240] | 0 | 0 | 0 | 0
6 | CC(=O)Nc1ccc(Cl)c(C(=O)O)n1 [Fragment B02297416] | 0 | 0 | 0 | 0
7 | O=C(O)c1sccc1Cl [Fragment B02297398] | 0 | 0 | 0 | 0
8 | Cc1n[nH]c(C)c1I [Fragment B02290459] | 1 | 1 | 1 | 1
9 | N#Cc1n[nH]cc1Br [Fragment B02290464] | 1 | 0 | 1 | 1
10 | CCC(N)c1ccc(Cl)cc1 (stereo not drawn) [Fragment B02291270] | 1 | 1 | 1 | 1
11 | Cc1noc(C)c1Br [Fragment B02289596] | 0 | 0 | 1 | 0
12 | Brc1cccc2c1CNC2 [Fragment B02291212] | 0 | 0 | 0 | 0
13 | Nc1ncccc1I [Fragment B02289600] | 0 | 0 | 1 | 0
14 | O=C(O)c1ccnc(Cl)c1 [Fragment B02291239] | 0 | 0 | 0 | 0
15 | Brc1nnc2n1CCNC2 [Fragment B02290462] | 0 | 0 | 0 | 0
16 | Cc1n[nH]c(C(=O)O)c1Br [Fragment B02294483] | 0 | 0 | 0 | 1
17 | Nc1nn(CC(=O)O)cc1Br [Fragment B02291156] | 0 | 0 | 0 | 0
18 | Nc1ccc(Br)cn1 [Fragment B02291232] | 0 | 0 | 0 | 1
19 | O=C(O)c1cc(Br)c[nH]c1=O [Fragment B02290523] | 0 | 0 | 0 | 0
20 | Nc1ccc(Cl)c(C(=O)O)c1 [Fragment B02291260] | 0 | 0 | 0 | 0
21 | Cc1c(Cl)c(C(=O)O)nn1C [Fragment B02291218] | 0 | 0 | 0 | 0
22 | Brc1cnc(C2OCCO2)s1 [Fragment B02290407] | 0 | 0 | 0 | 1
23 | O=c1[nH]cnc(O)c1Br [Fragment B02289618] | 0 | 0 | 0 | 0
24 | Nc1cnccc1Br [Fragment B02297424] | 0 | 0 | 1 | 1
25 | O=C(c1ccc(Cl)cc1)N1CCOCC1 [Fragment B02297400] | 0 | 0 | 0 | 0
26 | Clc1ccc(CN2CCNCC2)s1 [Fragment B02291241] | 0 | 0 | 0 | 0
27 | Cn1nc(C(F)(F)F)c(CO)c1Cl [Fragment B02291214] | 0 | 0 | 0 | 0
28 | Cn1ncc(I)c1C(=O)NN [Fragment B02297766] | 0 | 0 | 0 | 0
29 | OCc1c(Cl)nc2sccn12 [Fragment B02291233] | 0 | 0 | 0 | 1

Continued, values first:

Row | IDO1 (STD-NMR hit flag) (IDO1 (1-435)) | DOT1L (STD-NMR hit flag) (DOT1L (1-416)) | CAMK1G (STD-NMR hit flag) (CAMK1G (1-320)) | AAK1 (STD-NMR hit flag) (AAK1 (121-471)) | SMILES
30 | 0 | 0 | 0 | 0 | NCc1cc(Cl)cc(Cl)c1N [Fragment B02290090]
31 | 0 | 0 | 0 | 0 | Clc1cnc(Cl)nc1 [Fragment B02291267]
32 | 0 | 0 | 0 | 0 | NC1CCSc2ccc(Cl)cc21 (stereo not drawn) [Fragment B02291226]
33 | 0 | 0 | 0 | 1 | Cc1cnc(C)c(Cl)n1 [Fragment B02297402]
34 | 0 | 0 | 1 | 1 | Clc1n[nH]c2ccccc12 [Fragment B02291265]
35 | 0 | 0 | 1 | 1 | Nc1c(Cl)ncnc1NC1CC1 [Fragment B02291230]
36 | 0 | 0 | 0 | 0 | O=C(O)c1cccnc1Cl [Fragment B02291258]
37 | 0 | 0 | 0 | 1 | Cc1ccc(N)c(Cl)n1 [Fragment B02289616]
38 | 0 | 0 | 0 | 0 | Nc1ncc(Br)s1 [Fragment B02290461]
39 | 0 | 0 | 0 | 1 | O=c1[nH]c2ccc(Cl)nc2[nH]1 [Fragment B02290474]
40 | 0 | 0 | 0 | 0 | O=C(O)c1cc(Cl)nnc1Cl [Fragment B02290470]
41 | 0 | 0 | 0 | 0 | Nc1nc(Cl)nc2[nH]cnc12 [Fragment B02290476]
42 | 1 | 0 | 1 | 1 | Cc1onc(N)c1I [Fragment B02290521]
